Results reported in ChEMBL document CHEMBL1201862, “PubChem BioAssay data set” (2004).
Active and inactive are the calls of the source.

Tests used:
[1] = biological target: G-protein coupled receptor 55 (Homo sapiens, UniProt Q9Y2T6); experiment: GPR55 antagonists blocking LPI-driven arrestin recruitment, primary screen, imaging, U2OS, beta-arrestin-GFP, LPI agonist (AID 2013); assay type: functional;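 note: antagonist potency measured as reduced agonist-driven arrestin aggregation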
[2] = biological target: Voltage-dependent T-type calcium channel subunit alpha-1H (Homo sapiens, UniProt O95180); assay type: functional;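 note: channel activity triggered by adding a high calcium stimulation buffer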
Sequence of Voltage-dependent T-type calcium channel subunit alpha-1H (O95180 whole entry): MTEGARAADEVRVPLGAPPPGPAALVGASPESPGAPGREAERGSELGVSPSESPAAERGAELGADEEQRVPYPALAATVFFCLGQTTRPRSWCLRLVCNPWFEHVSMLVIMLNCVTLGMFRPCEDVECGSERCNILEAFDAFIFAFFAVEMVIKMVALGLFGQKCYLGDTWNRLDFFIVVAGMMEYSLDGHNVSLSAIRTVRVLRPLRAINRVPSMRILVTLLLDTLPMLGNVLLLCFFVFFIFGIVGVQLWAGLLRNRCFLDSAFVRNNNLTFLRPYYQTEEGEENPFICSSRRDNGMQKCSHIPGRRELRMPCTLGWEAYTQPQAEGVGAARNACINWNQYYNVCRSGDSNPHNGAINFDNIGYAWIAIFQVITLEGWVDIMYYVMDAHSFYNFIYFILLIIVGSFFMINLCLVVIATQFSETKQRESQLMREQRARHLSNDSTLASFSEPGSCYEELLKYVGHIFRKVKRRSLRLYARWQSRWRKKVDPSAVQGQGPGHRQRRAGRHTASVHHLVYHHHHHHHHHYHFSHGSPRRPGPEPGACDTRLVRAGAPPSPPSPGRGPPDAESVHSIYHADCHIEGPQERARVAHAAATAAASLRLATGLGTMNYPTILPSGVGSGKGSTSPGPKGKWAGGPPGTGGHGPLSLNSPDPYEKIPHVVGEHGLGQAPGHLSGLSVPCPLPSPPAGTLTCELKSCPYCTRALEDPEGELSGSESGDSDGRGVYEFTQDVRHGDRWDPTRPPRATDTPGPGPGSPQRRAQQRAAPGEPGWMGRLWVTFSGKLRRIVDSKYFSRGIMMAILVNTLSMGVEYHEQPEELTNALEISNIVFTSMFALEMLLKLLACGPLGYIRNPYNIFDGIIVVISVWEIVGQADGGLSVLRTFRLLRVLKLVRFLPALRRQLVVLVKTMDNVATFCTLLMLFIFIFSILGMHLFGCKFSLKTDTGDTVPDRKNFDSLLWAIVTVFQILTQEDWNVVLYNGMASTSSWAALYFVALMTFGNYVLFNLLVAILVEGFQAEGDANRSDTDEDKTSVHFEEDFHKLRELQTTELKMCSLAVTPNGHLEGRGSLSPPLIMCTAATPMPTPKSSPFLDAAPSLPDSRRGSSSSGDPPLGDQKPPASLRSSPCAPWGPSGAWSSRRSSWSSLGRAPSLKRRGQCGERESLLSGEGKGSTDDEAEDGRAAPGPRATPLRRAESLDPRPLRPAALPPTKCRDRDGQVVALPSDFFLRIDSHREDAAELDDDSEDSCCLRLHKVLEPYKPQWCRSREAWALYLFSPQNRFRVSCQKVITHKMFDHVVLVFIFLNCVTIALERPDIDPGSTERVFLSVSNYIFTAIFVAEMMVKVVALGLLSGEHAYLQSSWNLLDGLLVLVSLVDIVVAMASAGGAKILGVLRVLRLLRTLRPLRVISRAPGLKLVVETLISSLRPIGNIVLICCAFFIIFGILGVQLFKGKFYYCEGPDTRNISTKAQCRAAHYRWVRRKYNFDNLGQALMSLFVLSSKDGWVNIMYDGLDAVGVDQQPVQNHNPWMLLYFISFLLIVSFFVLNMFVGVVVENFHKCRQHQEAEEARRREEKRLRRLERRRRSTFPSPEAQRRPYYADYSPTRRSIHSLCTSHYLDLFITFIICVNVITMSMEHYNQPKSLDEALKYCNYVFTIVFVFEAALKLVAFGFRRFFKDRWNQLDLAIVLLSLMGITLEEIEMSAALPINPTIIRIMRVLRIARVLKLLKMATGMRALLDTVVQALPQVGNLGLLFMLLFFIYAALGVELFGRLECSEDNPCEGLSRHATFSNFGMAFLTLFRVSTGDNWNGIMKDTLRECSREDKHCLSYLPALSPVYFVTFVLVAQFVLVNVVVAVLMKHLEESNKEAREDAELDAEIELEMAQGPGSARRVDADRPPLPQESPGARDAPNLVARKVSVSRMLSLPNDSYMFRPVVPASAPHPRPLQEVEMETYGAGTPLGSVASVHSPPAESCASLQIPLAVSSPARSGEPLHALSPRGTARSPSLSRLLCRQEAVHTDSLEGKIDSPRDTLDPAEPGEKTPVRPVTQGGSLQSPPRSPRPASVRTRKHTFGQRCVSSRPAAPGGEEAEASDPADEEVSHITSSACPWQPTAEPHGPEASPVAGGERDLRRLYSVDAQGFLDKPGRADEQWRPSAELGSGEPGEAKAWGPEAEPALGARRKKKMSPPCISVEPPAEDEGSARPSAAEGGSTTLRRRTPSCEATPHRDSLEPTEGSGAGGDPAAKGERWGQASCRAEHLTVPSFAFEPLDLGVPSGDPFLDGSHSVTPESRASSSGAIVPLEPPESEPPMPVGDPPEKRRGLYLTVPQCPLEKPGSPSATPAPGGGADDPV

[3] = cells; assay type: functional, cell-based
[4] = cells; assay type: functional, cell-based; remark: listed apart in the source
[5] = inhibitors of HIV Env-driven cell fusion, dose response, cherry-pick (AID 652057); assay type: functional, cell-based
[6] = biological target: T1, Estrogen receptor (Homo sapiens, UniProt P03372);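 note: potency for inhibiting coactivator peptide recruitment to the receptor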
T1 sequence (P03372 whole entry): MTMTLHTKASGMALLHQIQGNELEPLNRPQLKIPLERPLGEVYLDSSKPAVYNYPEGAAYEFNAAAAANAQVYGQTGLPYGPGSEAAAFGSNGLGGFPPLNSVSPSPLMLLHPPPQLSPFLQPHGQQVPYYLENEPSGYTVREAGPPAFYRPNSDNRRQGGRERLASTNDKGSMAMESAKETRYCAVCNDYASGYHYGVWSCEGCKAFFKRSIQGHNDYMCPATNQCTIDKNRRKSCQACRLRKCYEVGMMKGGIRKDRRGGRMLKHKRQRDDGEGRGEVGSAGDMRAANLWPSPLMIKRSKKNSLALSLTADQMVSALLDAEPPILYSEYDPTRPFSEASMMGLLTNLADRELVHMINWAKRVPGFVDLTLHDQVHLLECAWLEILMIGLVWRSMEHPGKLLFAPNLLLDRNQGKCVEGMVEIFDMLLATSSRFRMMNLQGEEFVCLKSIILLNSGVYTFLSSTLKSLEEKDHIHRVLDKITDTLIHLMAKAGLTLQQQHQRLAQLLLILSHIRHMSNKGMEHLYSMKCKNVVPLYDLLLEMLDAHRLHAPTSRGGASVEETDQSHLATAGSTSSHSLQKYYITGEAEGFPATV

[7] = off-target signal loss in HeLa-CEM21 co-culture – HeLa F-luc CTL cells, cherry-picked, counter-screen for HIV-1 Env fusion inhibitor project, dose response (AID 652040); assay type: functional, cell-based;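 note: potency for signal decrease marking cytotoxic or nonspecific inhibition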
[8] = ZM109 Env clade C HIV-1 fusion inhibitors, dose response, HeLa effector, CEM target cells, luciferase, cherry-pick (AID 652058); assay type: functional, cell-based
[9] = inhibitors of clade B AD8 Env fusion, dose response, cell-based, cherry-pick (AID 652062); assay type: functional;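 note: luciferase signal from cell-cell fusion driven by HIV-1 clade B AD8 Env; potency is for inhibitors of fusion seen as a drop in luminescence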
[10] = biological target: Luciferin 4-monooxygenase (Photinus pyralis, UniProt P08659); experiment: Counter Screen for Luciferase-based Assay Positives. [Related pubchem assays: 620, 618, 411 ]
Sequence of Luciferin 4-monooxygenase (P08659 whole entry): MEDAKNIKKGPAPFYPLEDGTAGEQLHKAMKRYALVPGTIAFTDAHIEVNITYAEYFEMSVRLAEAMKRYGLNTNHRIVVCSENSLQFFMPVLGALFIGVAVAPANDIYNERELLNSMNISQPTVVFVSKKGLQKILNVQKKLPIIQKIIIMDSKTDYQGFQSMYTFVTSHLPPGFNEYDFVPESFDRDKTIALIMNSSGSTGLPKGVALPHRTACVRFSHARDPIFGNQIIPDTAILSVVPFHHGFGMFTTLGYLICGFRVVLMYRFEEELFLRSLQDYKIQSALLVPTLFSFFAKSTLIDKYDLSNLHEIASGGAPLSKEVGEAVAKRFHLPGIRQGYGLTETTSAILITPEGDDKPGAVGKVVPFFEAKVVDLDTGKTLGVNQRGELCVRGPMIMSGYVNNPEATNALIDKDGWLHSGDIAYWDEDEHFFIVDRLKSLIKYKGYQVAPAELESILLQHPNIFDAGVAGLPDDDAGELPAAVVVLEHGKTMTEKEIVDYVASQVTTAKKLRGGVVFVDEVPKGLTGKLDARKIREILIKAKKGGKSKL

[11] = test system: HeLa; experiment: HeLa cell cytotoxicity, dose response, cytotoxicity control for MITF activator project, CellTiter-Glo luminescence, cherry-pick samples (AID 540259); assay type: functional, cell-based; conditions: Homo sapiens
[12] = test system: HT-1080; experiment: cytotoxicity in HT1080 fibrosarcoma cells, cell-based, fluorescence readout (AID 620); assay type: functional; conditions: Homo sapiens
[13] = Glucagon-like peptide 1 release potency, NCI-H716 cell line, dose-response, half-maximal inhibitory concentration (AID 1117344); assay type: functional, cell-based
[14] = half-maximal inhibitory concentration for glucagon-like peptide-1 release, STC-1 cell line, dose-response (AID 1117345); assay type: functional, cell-based
[15] = biological target: T2, Acyl-homoserine lactone acylase PvdQ (Pseudomonas aeruginosa (strain LESB58), UniProt Q9I194); experiment: P. aeruginosa PvdQ acylase inhibitors, dose response, biochemical, fluorescence, plate reader and imaging, cherry-picks (AID 493231)
T2 sequence (Q9I194 whole entry): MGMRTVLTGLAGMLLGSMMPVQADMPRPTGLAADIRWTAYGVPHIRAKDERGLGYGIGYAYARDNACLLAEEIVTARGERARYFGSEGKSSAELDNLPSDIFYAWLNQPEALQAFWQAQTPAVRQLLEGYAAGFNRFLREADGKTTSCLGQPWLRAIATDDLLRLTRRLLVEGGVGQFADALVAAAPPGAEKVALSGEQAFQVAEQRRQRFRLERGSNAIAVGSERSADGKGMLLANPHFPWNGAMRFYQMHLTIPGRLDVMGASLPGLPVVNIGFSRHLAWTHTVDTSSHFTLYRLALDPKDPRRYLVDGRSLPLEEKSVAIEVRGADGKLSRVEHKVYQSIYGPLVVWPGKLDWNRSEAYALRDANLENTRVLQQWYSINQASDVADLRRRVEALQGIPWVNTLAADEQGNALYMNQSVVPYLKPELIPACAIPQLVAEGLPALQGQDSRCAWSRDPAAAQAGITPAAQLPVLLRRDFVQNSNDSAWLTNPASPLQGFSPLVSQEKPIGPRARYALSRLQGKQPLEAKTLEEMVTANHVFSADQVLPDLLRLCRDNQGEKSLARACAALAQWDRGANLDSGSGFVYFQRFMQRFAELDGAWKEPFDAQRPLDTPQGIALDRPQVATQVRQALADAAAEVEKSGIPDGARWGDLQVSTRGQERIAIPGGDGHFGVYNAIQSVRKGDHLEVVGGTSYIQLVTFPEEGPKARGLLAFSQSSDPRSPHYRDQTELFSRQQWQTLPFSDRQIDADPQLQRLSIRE

[16] = HepG2 cell cytotoxicity, dose response, cytotoxicity control, cherry-picked samples (AID 1159577); assay type: functional, cell-based
[17] = P. falciparum Dd2 growth inhibitors, dose response, SYBR Green, cherry-picked samples (AID 1159567); assay type: functional, cell-based

Sequence of G-protein coupled receptor 55 (Q9Y2T6 whole entry): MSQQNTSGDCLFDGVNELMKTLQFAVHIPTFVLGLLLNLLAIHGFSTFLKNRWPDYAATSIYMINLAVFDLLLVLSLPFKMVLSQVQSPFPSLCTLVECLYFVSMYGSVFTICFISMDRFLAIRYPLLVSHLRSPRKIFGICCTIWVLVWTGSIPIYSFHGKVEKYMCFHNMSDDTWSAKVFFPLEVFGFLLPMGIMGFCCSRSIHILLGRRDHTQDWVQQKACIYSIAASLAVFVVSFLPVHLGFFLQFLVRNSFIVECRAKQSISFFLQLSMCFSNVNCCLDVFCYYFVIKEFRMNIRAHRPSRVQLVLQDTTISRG

Cn1c(=O)n(C/C=C/c2ccccc2)c(=O)c2c1nc1n2CCCN1c1ccc(F)cc1
IC50 [1]: 0.624 µM (active)

Cc1ccc(CNCc2cc3c(C(C)(C)C)nn(-c4ccccc4)c3[nH]c2=O)cc1
IC50 [1]: 1.92 µM (active)

CCCC(C)NC(=O)c1ccc2[nH]c3c(c2c1)CC(C)CC3 (stereo unspecified)
EC50 [2]: 60.1 µM (active)

Cc1sc(NC(=O)c2ccco2)c(CN2CCC(C)CC2)c1C
EC50 [3]: > 350 µM (not active) | EC50 [2]: 7.78 µM (active) | EC50 [4]: > 350 µM (not active)

Cc1ccc(C(C(=O)NC(C)(C)C)N(Cc2cccs2)C(=O)c2csnn2)cc1 (stereo unspecified)
AC50 [5]: 10.2 µM (active) | IC50 [6]: > 50 µM (not active) | AC50 [7]: 22.6 µM (active) | AC50 [8]: 17.5 µM (active) | AC50 [9]: 1.67 µM (active)

CCN(CCCNC(=O)CCc1nc(-c2ccc(C)cc2)no1)c1cccc(C)c1
EC50 [2]: 2.54 µM (active)

Cc1ccc(SCc2cn3c(C)csc3n2)cc1
EC50 [10]: < 0.2 µM (active) | AC50 [11]: 54.9 µM (active) | EC50 [12]: > 50 µM (not active)

CCCCCCCCCCCCOCCOCCOCCOCCOCCOCCOCCOCCOCCO
IC50 [13]: > 40 µM (inactive) | IC50 [14]: 30.4 µM (inactive)

CC(C)(C)NC(=O)c1cc(Cl)ccc1[N+](=O)[O-]
AC50 [15]: 11.5 µM (active)

COc1ccc2c3c([nH]c2c1)[C@H](CO)N(Cc1ccc(Cl)cc1)CC31CN(Cc2nccs2)C1
AC50 [16]: 31.9 µM (active) | AC50 [17]: 4.85 µM (active)

COc1ccccc1C(C#N)c1cccc(Cl)n1 (stereo unspecified)
AC50 [15]: 0.85 µM (active)
